The test system of data set [1] is H460 cells. Briefly: Peptide-binding assay (cellular ELISA). The format is cell-based, human. As for the experimental part:
(§1) H460 cells were seeded in 96-well ELISA plates at 1×10^4 per well. After 24-hour incubation, cells were fixed with 3.7% paraformaldehyde for 10 min at 4°C and then blocked with 1% BSA in PBS for 1 hour at room temperature. Serial diluted biotinylated peptides were incubated with cells for 1 hour at room temperature. After twice washing with PBS, cells were incubated with HRP-conjugated streptavidin (1∶5000 dilution) for 1 hour and then washed with PBS supplemented with 0.1% tween-20 for four times. Binding activity was assessed by cellular ELISA with optical density at 490 nm. For competition assay, cells were firstly incubated with unlabeled peptides at room temperature for 1 hour before incubated with 10 µg/ml biotinylated SP5-2 peptides.
For orientation: ELISA stands for enzyme-linked immunosorbent assay.

Data set [2] concerns H460 cells. Briefly: Peptide competition assay (cellular ELISA). The settings on record: B-SP5-2 10 µg/ml, unlabeled peptide 22 to 600 µg/ml. The format is cell-based, human. As for the experimental part:
as §1

The nature of data set [3]: Pharmacokinetic and biodistribution studies in H460 xenograft-bearing mice. In kind it is in vivo, NOD/SCID mice. The settings on record: 2 mg/kg i.v. On the procedure: Human cancer xenografts were established in NOD/SCID mice (NLAC). H460 cells (5×10^6) were injected subcutaneously (s.c.) into the dorsolateral flanks of 4-week-old mice. […] At selected time points, three mice in each group were anaesthetized and sacrificed with 50% CO2 containing 50% O2. Blood samples were collected through submaxillary punctures, and plasma samples were prepared. After perfusion, xenograft tumors and mouse organs were removed and homogenized. Tumor cell nuclei were isolated and nuclear doxorubicin was extracted as described previously, [32]. The total doxorubicin concentration was measured as described by Mayer et al.. Total doxorubicin was quantified using spectrofluorometry at λex 485/20 nm and λem 645/40 nm (Synergy HT Multi-Detection Microplate Reader, BioTek Instruments, Winooski, VT).
Tissue concentrations of doxorubicin were expressed as microequivalents per milliliter of plasma or per gram of tissue. A standard doxorubicin curve was prepared in control homogenates by following the above extraction procedure. Drug levels were estimated on the basis of doxorubicin fluorescent equivalents.

The next data set has as its system LL/2 cells. Description: Lung metastasis animal model. The format is in vivo. To be noted: 2 mg/kg i.v. twice a week, eight injections (16 mg/kg total). On the procedure:
LL/2 cells were washed twice by centrifugation in media without serum at room temperature, and re-suspended in media at 4°C prior to injection. Cell viability was determined by trypan blue exclusion, and only cell suspensions with greater than 95% viability and without cell clumping were used. Cells (1×10^5 cells/mouse) were inoculated via the lateral tail vein of 6-week-old female C57BL/6 mice. Mice were then treated with different formulations of anti-cancer drugs. The dosage was 1 or 2 mg/kg twice a week for four weeks. Mouse body weight and survival rate were measured twice a week. The endpoint was determined by the mouse weight loss (>20% of body weight) or mouse activity assessment (hunching, stationary, ruffling and poor grooming). Mice were observed every day and given soft diet. Animal care was carried out in accordance with the guidelines of Academia Sinica, Taiwan.

In a further data set the test system is LL/2-derived tumors. Briefly: Syngenic animal model. In kind it is in vivo, C57BL/6 mice. The settings on record: five injections. As for the experimental part: C57BL/6 mice (6-week-old, NLAC) were injected s.c. in the dorsolateral flank with 2×10^6 LL/2 cells in 100 µL serum-free media. […] The dosage of SP-5-2-LD was 1 or 2 mg/kg, injected twice a week for four weeks. Mouse body weight and tumor size were measured twice a week. Tumor volumes were calculated using the equation: length × (width)^2 ×0.52 and presented as standard error of the mean. This study used humane endpoint by determining the tumor size (>10% of body weight) or mouse weight loss (>20% of body weight). Mice were observed twice a week and given soft diet. Animal care was carried out in accordance with the guidelines of Academia Sinica, Taiwan.

The subject of data set [4] is H460 cells. Briefly: Orthotopic lung adenocarcinoma model. To be noted: 1 mg/kg i.v. twice a week, eight injections, started five days after orthotopic injection. The format is in vivo, SCID mice. On the procedure:
SCID mice (4-week-old) were anesthetized with isoflourane mixed with oxygen and placed in the right lateral decubitus position. The skin overlying the left chest wall in the mid-axillary line was treated with alcohol, and the underlying chest wall and intercostal spaces were visualized. H460 cells (5×10^5; single-cell suspensions of over 90% viability as determined by trypan blue exclusion) in 50 µL serum-free media plus Matrigel Matrix (BD Biosciences) (1∶1) were injected into the left lateral thorax, at the lateral dorsal axillary line. After tumor injection, the mice were turned to the left lateral decubitus position and observed for 45 to 60 minutes until fully recovered. Mice were then treated with different formulations of anti-cancer drugs. The dosage was 1 mg/kg twice a week for four weeks. Mouse body weight and survival rate were measured twice a week. The endpoint was determined by the mouse weight loss (>20% of body weight) or mouse activity assessment (hunching, stationary, ruffling and poor grooming). Mice were observed every day and given soft diet. Animal care was carried out in accordance with the guidelines of Academia Sinica, Taiwan.

Consider three compounds from article PMC3873925, “Peptide-Mediated Liposomal Doxorubicin Enhances Drug Delivery Efficiency and Therapeutic Efficacy in Animal Models” (PLoS ONE, 2013).

As to “TDSILRSYDGGG [MP5-2, mutant peptide, WTY motif changed to GGG]”, the binding activity entry in the data set on H460 cells [1] (H460 and LL/2 cells, WTY motif changed to GGG) is on record as “remarkable loss of binding activity”.

As for TDSILRSYDWTY [SP5-2], the “inhibition of Biotin-labeled SP5-2 binding to H460 cells by unlabeled peptide” value in the data set on H460 cells [2] is “competitively inhibited”. Besides, the “minimum binding activity started at” value in the data set on H460 cells [1] (H460 cells, biotinylated peptide) worked out at 1 µg/mL.

For `COc1cccc2c1C(=O)c1c(O)c3c(c(O)c1C2=O)C[C@@](O)(C(=O)CO)C[C@@H]3O[C@H]1C[C@H](N)[C@H](O)[C@H](C)O1` [FD, doxorubicin], in data set [3], the “AUC0-72 h Blood” value is reported as 5.9 µg·h/g, the “AUC0-72 h Heart” value is listed as 26.3 µg·h/g, the “AUC0-72 h Kidney” value came out at 87.2 µg·h/g and the “AUC0-72 h Liver” value amounted to 293.6 µg·h/g. Further, the “AUC0-72 h Lung” value in data set [3] came to 421.2 µg·h/g. For the same compound, the “AUC0-72 h Nuclei” value in data set [3] (doxorubicin bound to tumor cell nuclei) is on record as 5.5 µg·h/g. In data set [3] (doxorubicin in tumor tissue), the “AUC0-72 h Tumor” value is 8.5 µg·h/g. Also, in the data set on LL/2 cells, the median overall survival is reported as 21 days. Also, the “tumor size, fold larger than in equivalent SP5-2-LD-treated mice” value in the data set with LL/2-derived tumors (1 mg/kg i.v. twice a week) is on record as 1.55 fold. In addition, in the data set with LL/2-derived tumors (2 mg/kg i.v. twice a week), the “tumor size, fold larger than in equivalent SP5-2-LD-treated mice” value was determined as 2.38 fold. Further, the mean life spans in the data set with H460 cells [4] stood at 25 days.
